How the values were obtained:
[1] = tested on: iCasp9M.IRES.IL-12-transduced EBV-CTLs; test: IL-12 ELISA of iCasp9M.I.IL-12-transduced EBV-CTL supernatant; assay type: cell-based, human; settings: 10 nM CID; detection limit 7.8 pg/mL
Description: The concentration of interferon-[…] (IFN-[…]), IL-2, IL-4, IL-5, IL-10, and tumor necrosis factor-[…] (TNF[…]) in CTL culture supernatants was measured using the Human Th1/Th2 cytokine cytometric Bead Array (BD Pharmingen) and the concentration of IL-12 in the culture supernatants was measured by enzyme-linked immunosorbent assay (ELISA; R&D Systems, Minneapolis, Minn.) according to the instructions of the manufacturer.
To determine whether iCasp9M could effectively destroy cells genetically modified to express an active transgene product, the ability of iCasp9M to eliminate EBV-CTLs stably expressing IL-12 was measured. While IL-12 was undetectable in the supernatant of nontransduced and iCasp9M.IRES.GFP-transduced CTLs, the supernatant of iCasp9M.IRES.IL-12-transduced cells contained 324 pg/mL to 762 pg/mL IL-12. After administration of 10 nM CID, however, the IL-12 in the supernatant fell to undetectable levels (<7.8 pg/mL). Thus, even without prior sorting for high transgene expressing cells, activation of iCasp9M is sufficient to completely eliminate all T cells producing biologically relevant levels of IL-12. […] Three days after a second antigenic stimulation, the levels of IL-12 in the culture supernatant were measured by IL-12 ELISA (detection limit of this assay is 7.8 pg/mL). […]

[2] = tested on: iCasp9M.IRES.GFPhigh-transduced CTLs in LCL xenograft; test: SCID mouse-human xenograft model, elimination of iCasp9M-transduced CTLs; assay type: in vivo, NOD/SCID mice; settings: single dose of CID (50 μg AP20187 i.p.), 3 days after
Description: Non-obese diabetic severe combined immunodeficient (NOD/SCID) mice, 6 to 8 weeks of age, were irradiated (250 rad) and injected subcutaneously in the right flank with 10×10^6 to 15×10^6 LCLs resuspended in Matrigel (BD Bioscience). Two weeks later mice bearing tumors that were approximately 0.5 cm in diameter were injected into the tail vein with a 1:1 mixture of nontransduced and iCasp9.I.GFPhigh-transduced EBV CTLs (total 15×10^6). At 4 to 6 hours prior and 3 days after CTL infusion, mice were injected intraperitoneally with recombinant hIL-2 (2000 U; Proleukin; Chiron). […] By FACS analysis, the number of GFP^+ cells within the gated CD3^+ population was evaluated. […]
The function of iCasp9M also was evaluated in transduced EBV-CTLs in vivo. […] Three days after CID/carrier administration, tumors were analyzed for human CD3^+/GFP^+ cells. […]
The function of iCasp9M in vivo, was assayed. […] On day 3 after CTL administration, mice received either CID (50 µg AP20187; (black diamonds, n=6) or carrier only (black squares, n=5) and on day 6 the presence of human CD3^+/GFP^+ T cells in the tumors was analyzed. Human CD3^+ T cells isolated from the tumors of a control group of mice that received only nontransduced CTLs (15×10^6 CTLs; n=4) were used as a negative control for the analysis of CD3^+/GFP^+ T cells within the tumors.

Raji-GFP cells = test: Raji-GFP coculture with CD19 CAR-T cells (flow cytometry); assay type: cell-based, human; settings: 2 nM, E:T 1:5, seven days
Description: After seven days of incubation the live cells were analyzed for the proportion of GFP labeled tumor cells (left) and for the proportion of total T cells (CD3^+, right) and transduced CAR-T cells (CD34, not shown).
Raji cells (ATCC) labeled by stable expression of Green Fluorescent Protein (Raji-GFP) are a Burkitt's lymphoma cell line that express CD19 on the cell surface and are a target for an anti-CD19 CAR. 50000 Raji-GFP cells were seeded on a 24 well plate with 10000 CAR-T cells, a 1:5 E:T ratio. Media supernatant was taken at 48 hours for determination of cytokine release by activated CAR-T cells. The degree of tumor killing was determined at 7 days and 14 days by flow cytometry (Galeos, Beckman-Coulter) by the proportion of GFP labeled tumor cells and CD3 labeled T cells.

T cells expressing iC9 = test: T cell killing assay with caspase 3/7 green reagent monitored by IncuCyte, iC9; assay type: cell-based, human; settings: increasing doses, PBMCs from 3 donors, FIG. 108B
From the text: To determine the functionality of these switches in activated T cells, retroviral supernatants were produced and transduced into PBMCs activated from 3 separate donors.

293T cells = test: SeAP reporter assay: iC9 without FRB-Caspase-9 (controls); assay type: cell-based; settings: iC9 with control vector or FRB without caspase fusion
From the text: (FIGS. 39 and 40). iC9 (FKBPv12-Caspase-9) was cotransfected with a control vector expressing only an epitope tag (FIG. 39) or a vector containing FRB without caspase fusion, but instead with a short, irrelevant tag (FIG. 40).
FIG. 39—FRB-Caspase-9 is required for a rapamycin-induced cell death switch. 293T cells were transfected with SRα-SeAP (pBP0046), pS-NLS-E and pSH1-FKBPv12-Caspase9 (pBP0044).
FIG. 40—Caspase-9 fusion with FRB is required for a rapamycin-induced cell death switch. 293T cells were transfected with SRα-SeAP (pBP0046), pSH1-FRBL-VP16 (pBP0731) (4) and pSH1-FKBPv12-Caspase9 (pBP0044). […] Loss of reporter activity is a proxy for the loss of cell viability. Reporter activity is expressed as a percentage of the average of 8 wells containing no drug. Drug-containing wells were assayed in triplicate wells.

Row | Compound | IL-12 in the supernatant after CID [1] | reduction in the number of human CD3+/GFP+ T cells versus carrier ([2]; listed as CID) | reduction in the number of human CD3+/GFP+ T cells versus carrier ([2]; listed as dimerizer) | CAR-T cells with i9+CARζ+MC or FRBFwtMC/FvC9 (Raji-GFP cells) | activation of iC9 in T cells (caspase 3/7) (T cells expressing iC9) | cell death (loss of SeAP reporter) without FRB-Caspase-9 (293T cells)
1 | CC[C@H](C(=O)N1CCCC[C@H]1C(=O)O[C@H](CCc1ccc(OC)c(OC)c1)c1cccc(OCC(=O)NCC(CNC(=O)COc2cccc([C@@H](CCc3ccc(OC)c(OC)c3)OC(=O)[C@@H]3CCCCN3C(=O)[C@@H](CC)c3cc(OC)c(OC)c(OC)c3)c2)CN(C)C)c1)c1cc(OC)c(OC)c(OC)c1 [AP20187] | < 7.8 pg/mL | > 99% | more than 99% |  |  | 
2 | CC[C@H](C(=O)N1CCCC[C@H]1C(=O)O[C@H](CCc1ccc(OC)c(OC)c1)c1cccc(OCC(=O)NCCNC(=O)COc2cccc([C@@H](CCc3ccc(OC)c(OC)c3)OC(=O)[C@@H]3CCCCN3C(=O)[C@@H](CC)c3cc(OC)c(OC)c(OC)c3)c2)c1)c1cc(OC)c(OC)c(OC)c1 [rimiducid] |  |  |  | caused cell death | can activate | effectively permitted homodimerization and induction of Caspase-9
